In patent US20220324865A1 (Bayer Aktiengesellschaft, priority 2018, published 2022):

molecular target: T1, human EP3 receptor (Homo sapiens, UniProt P43115); experiment: Cellular in vitro assay for determining EP3 receptor activity (human EP3 cell line, sulprostone-stimulated calcium luminescence); format: cell-based; details: CHO cells expressing human EP3 and mitochondrial Clytin; antagonist mode, sulprostone at EC50; read-out: EP3 CHO mtCLY ANTAG IC50
T1 construct: expressed in transfected cells; host or cells: CHO K1 (Chinese Hamster Ovary), stably co-transfected with Galpha16 and mitochondrial clytin
T1 sequence (P43115 1-390): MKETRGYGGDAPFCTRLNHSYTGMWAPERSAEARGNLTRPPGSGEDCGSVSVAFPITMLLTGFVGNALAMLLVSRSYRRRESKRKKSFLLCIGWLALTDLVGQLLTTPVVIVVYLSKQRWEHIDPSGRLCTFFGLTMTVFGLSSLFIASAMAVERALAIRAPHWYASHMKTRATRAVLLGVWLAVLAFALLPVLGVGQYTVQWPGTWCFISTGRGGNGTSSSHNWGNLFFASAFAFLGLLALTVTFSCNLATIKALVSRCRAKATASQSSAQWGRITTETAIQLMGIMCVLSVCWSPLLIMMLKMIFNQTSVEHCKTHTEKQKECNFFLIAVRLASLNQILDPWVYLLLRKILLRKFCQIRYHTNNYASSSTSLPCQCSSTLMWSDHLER
How it was run: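 CHO K1 cells stably expressing human EP3 with Gα16 and mitochondrial Clytin, loaded overnight with coelenterazine. Compounds added 10 min before sulprostone at its EC50; antagonism read immediately as reduced calcium-driven luminescence, quadruplicate points.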

Row | Structure (SMILES) | IC50 [nM]
1 | CN(C)CC(NC(=O)c1cc2c(=O)[nH]c(-c3ccc4ccccc4c3)cn2n1)c1ccccc1 (racemic) [Example 1-4, rac-N-[2-(Dimethylamino)-1-phenylethyl]-6-(naphthalen-2-yl)-4-oxo-4,5-dihydropyrazolo[1,5-a]-pyrazine-2-carboxamide] | 4.36
2 | Cc1cc(C)n(C(CNC(=O)c2cc3c(=O)[nH]c(-c4ccc5ccccc5c4)cn3n2)C(C)C)n1 (stereo not shown) [Example 2-19, N-[2-(3,5-Dimethyl-1H-pyrazol-1-yl)-3-methylbutyl]-6-(2-naphthyl)-4-oxo-4,5-dihydropyrazolo[1,5-a]pyrazine-2-carboxamide] | 7.9
3 | Cc1cccc2ncc(-c3cn4nc(C(=O)NC5(c6ccccc6)CCOCC5)c(C(C)C)c4c(=O)[nH]3)cc12 [Example 4-77, 3-Isopropyl-6-(5-methylquinolin-3-yl)-4-oxo-N-(4-phenyltetrahydro-2H-pyran-4-yl)-4,5-dihydropyrazolo[1,5-a]pyrazine-2-carboxamide] | 0.835
4 | CN1CC(NC(=O)c2nn3cc(-c4ccc5c(c4)OCCO5)[nH]c(=O)c3c2C(F)(F)F)(c2ccc(F)cc2)C1 [6-535] | 4.2
5 | Cc1cccc2ncc(-c3cn4nc(C(=O)Nc5cnn(C)c5)c(C(C)C)c4c(=O)[nH]3)cc12 [Example 4-24, N-(1-Methyl-1H-pyrazol-4-yl)-6-(5-methylquinolin-3-yl)-4-oxo-3-(propan-2-yl)-4,5-dihydropyrazolo[1,5-a]pyrazine-2-carboxamide] | 1.15
6 | CC(C)C(CNC(=O)c1cc2c(=O)[nH]c(-c3ccc4ccccc4c3)cn2n1)n1cc(Cl)cn1 (stereo not shown) [Example 2-22, N-[2-(4-Chlor-1H-pyrazol-1-yl)-3-methylbutyl]-6-(2-naphthyl)-4-oxo-4,5-dihydropyrazolo[1,5-a]pyrazine-2-carboxamide] | 3.85
7 | O=C(NCC(O)C(F)(F)F)c1nn2cc(-c3ccc4c(c3)OCCO4)[nH]c(=O)c2c1C(F)(F)F (single isomer, unassigned) [6-532] | 8.9
8 | O=C(NC(CO)c1ccc2c(c1)OCO2)c1cc2c(=O)[nH]c(-c3ccc4ccccc4c3)cn2n1 (stereo not shown) [Example 2-28, N-[1-(1,3-Benzodioxol-5-yl)-2-hydroxyethyl]-6-(2-naphthyl)-4-oxo-4,5-dihydropyrazolo[1,5-a]pyrazine-2-carboxamide] | 0.93
9 | Cc1nn(C(C)CNC(=O)c2cc3c(=O)[nH]c(-c4ccc5ccccc5c4)cn3n2)c(C)c1Cl (stereo not shown) [Example 2-46, N-[2-(4-Chlor-3,5-dimethyl-1H-pyrazol-1-yl)propyl]-6-(2-naphthyl)-4-oxo-4,5-dihydropyrazolo[1,5-a]pyrazine-2-carboxamide] | 2.95
10 | N#Cc1c(C(=O)NC2(c3ccc(Cl)cc3)CCC2)nn2cc(-c3ccc4ccccc4c3)[nH]c(=O)c12 [Example 3-62, N-[1-(4-Chlorophenyl)cyclobutyl]-3-cyano-6-(naphthalen-2-yl)-4-oxo-4,5-dihydropyrazolo[1,5-a]pyrazine-2-carboxamide] | 4
11 | COC[C@@H](NC(=O)c1nn2cc(-c3ccc4ccccc4c3)[nH]c(=O)c2c1C#N)c1ccccc1 [Example 1-60, 3-Cyano-N-[(1S)-2-methoxy-1-phenylethyl]-6-(naphthalen-2-yl)-4-oxo-4,5-dihydropyrazolo[1,5-a]-pyrazine-2-carboxamide] | 2.7
12 | CCn1nccc1CNC(=O)c1nn2c(C)c(-c3ccc4ccccc4c3)[nH]c(=O)c2c1C [Example 1-68, N-[(1-Ethyl-1H-pyrazol-5-yl)methyl]-3,7-dimethyl-6-(naphthalen-2-yl)-4-oxo-4,5-dihydropyrazolo-[1,5-a]pyrazine-2-carboxamide] | 1.42

Other lines, results leading:

Row | IC50 [nM] | Structure (SMILES)
13 | 1.25 | Cc1cc(-c2cn3nc(C(=O)NC(C)C4CCC4)c(C(F)(F)F)c3c(=O)[nH]2)ccc1Cl (single isomer, unassigned) [6-223]
14 | 3.2 | Cc1c(C(=O)NC(C)c2ccc(S(C)(=O)=O)cc2)nn2c(C)c(-c3ccc4ccccc4c3)[nH]c(=O)c12 (stereo not shown) [Example 3-23, 3,7-Dimethyl-N-[1-(4-methylsulfonylphenyl)ethyl]-6-(2-naphthyl)-4-oxo-5H-pyrazolo[1,5-a]pyrazine-2-carboxamide]
15 | 0.65 | COC[C@H](NC(=O)c1nn2cc(-c3ccc(Cl)c(C)c3)[nH]c(=O)c2c1C1CC1)c1ccccc1 [6-304]
16 | 5.35 | Cc1ccc(-c2cn3nc(C(=O)NC(C)CN4CCOCC4)c(C4CC4)c3c(=O)[nH]2)cc1C (single isomer, unassigned) [6-451]
17 | 0.675 | Cc1cccc2ncc(-c3cn4nc(C(=O)N[C@@H](C)c5ccccc5)c(C(C)C)c4c(=O)[nH]3)cc12 [Example 4-59, 6-(5-Methylquinolin-3-yl)-4-oxo-N-[(7S)-1-phenylethyl]-3-(propan-2-yl)-4,5-dihydropyrazolo[1,5-a]pyrazine-2-carboxamide]
18 | 2.1 | Cc1c(C(=O)NC2(c3ccc(C#N)cc3)CC2)nn2c(C)c(-c3ccc4ccccc4c3)[nH]c(=O)c12 [Example 3-27, N-[1-(4-Cyanophenyl)cyclopropyl]-3,7-dimethyl-6-(naphthalen-2-yl)-4-oxo-4,5-dihydropyrazolo[1,5-a]pyrazine-2-carboxamide]
19 | 1.55 | COc1ccc(C(NC(=O)c2nn3cc(-c4cnc5cccc(C)c5c4)[nH]c(=O)c3c2C(C)C)C2CC2)cc1 (stereo not shown) [Example 4-78, N-[Cyclopropyl(4-methoxyphenyl)methyl]-3-isopropyl-6-(5-methyl-3-quinolyl)-4-oxo-5H-pyrazolo[1,5-a]pyrazine-2-carboxamide]
20 | 1.59 | C[C@@H](NC(=O)c1nn2cc(-c3ccc4ccccc4c3)[nH]c(=O)c2c1C1CC1)c1ccc(F)cc1 [Example 1-81]
21 | 1.03 | Cc1ccc(-c2cn3nc(C(=O)N[C@H](CCO)c4ccc(F)cc4)c(C)c3c(=O)[nH]2)cc1F [6-408]
22 | 0.915 | Cc1ccc(-c2cn3nc(C(=O)NC4(c5ccc(F)cc5)CN(C)C4)c(C(C)C)c3c(=O)[nH]2)cc1C [Example 1-91, 6-(3,4-Dimethylphenyl)-N-[3-(4-fluorophenyl)-1-methylazetidin-3-yl]-4-oxo-3-(propan-2-yl)-4,5-dihydropyrazolo[1,5-a]pyrazine-2-carboxamide]
23 | 4.4 | Cc1c(C(=O)NCc2ccncc2)nn2c(C)c(-c3ccc4ccccc4c3)[nH]c(=O)c12 [Example 3-64, 3,7-Dimethyl-6-(naphthalen-2-yl)-4-oxo-N-[(pyridin-4-yl)methyl]-4,5-dihydropyrazolo[1,5-a]pyrazine-2-carboxamide]
24 | 1.05 | Cc1cc(-c2cn3nc(C(=O)NCCC(O)C(F)(F)F)c(C4CC4)c3c(=O)[nH]2)ccc1Cl (single isomer, unassigned) [6-311]
25 | 0.58 | COCc1c(C(=O)N[C@@H](c2ccc(F)cc2)C(C)(C)O)nn2cc(-c3ccc(C)c(Cl)c3)[nH]c(=O)c12 [6-627]
26 | 6.65 | COCc1c(C(=O)NC2(c3ccc(F)cc3)CN(C)C2)nn2cc(-c3ccc4c(c3)OCCO4)[nH]c(=O)c12 [6-628]
27 | 3.85 | Cc1ccc(-c2[nH]c(=O)c3c(C4CC4)c(C(=O)N[C@H](C)c4ccc(F)cc4)nn3c2F)cc1Cl [6-663]
28 | 2.2 | CC(C)(O)[C@@H](NC(=O)c1nn2cc(-c3ccc(Cl)c(F)c3)[nH]c(=O)c2c1C1CC1)c1ccc(F)cc1 [Example 1-167, 6-(4-Chloro-3-fluorophenyl)-3-cyclopropyl-N-[(15)-1-(4-fluorophenyl)-2-hydroxy-2-methylpropyl]-4-oxo-4,5-dihydropyrazolo[1,5-a]pyrazine-2-carboxamide]
